The record followed here is ChEMBL document CHEMBL4699578, “Next generation quorum sensing inhibitors: Accounts on structure activity relationship studies and biological activities” (Bioorg Med Chem, 2020).

Experiment [1] can be described thus: Inhibition of quorum sensing system in Pseudomonas aeruginosa PAO1 assessed as reduction in pyocyanin production incubated for 8 hrs.
Experiment [2] can be described thus: Inhibition of quorum sensing system in Pseudomonas aeruginosa PAO1 assessed as reduction in […] incubated for 18 hrs by congo red staining based assay.
A short description of experiment [3]: Antagonist activity at Vibrio fischeri quorum sensing system in presence of OHHL by bioluminescence method. The arrangement: species or system Aliivibrio fischeri.
The nature of experiment [4]: Inhibition of quorum sensing system in Staphylococcus aureus.
Experiment [5] relates to Escherichia coli. Put plainly: Inhibition of quorum sensing system in Escherichia coli MT102 at 250 uM measured after 15 hrs by fluorescence method relative to control.
Experiment [6] has as its system Pseudomonas aeruginosa. As to the kind of experiment: Inhibition of quorum sensing system in Pseudomonas aeruginosa assessed as reduction in biofilm formation at 250 uM incubated for 24 hrs by crystal violet staining based method relative to control.
A short description of experiment [7]: Inhibition of quorum sensing system in Stenotrophomonas maltophilia.
Experiment [8] can be described thus: Inhibition of quorum sensing system in Proteus mirabilis.
The subject of experiment [9] is Vibrio campbellii ATCC BAA-1116. Put plainly: Inhibition of quorum sensing system in Vibrio harveyi BB120 assessed as delay time for the onset of bioluminescence at 50 ug/ml measured every 10 mins after 5 min of double orbital stirring during 11 hrs 50 mins by luminescence method. The following applies: dose 50.0 µg/ml, time 710.0 min.
The target in experiment [10] is T1, Transcriptional activator protein LuxR (Aliivibrio fischeri, UniProt P12746).
T1 sequence (P12746 whole entry): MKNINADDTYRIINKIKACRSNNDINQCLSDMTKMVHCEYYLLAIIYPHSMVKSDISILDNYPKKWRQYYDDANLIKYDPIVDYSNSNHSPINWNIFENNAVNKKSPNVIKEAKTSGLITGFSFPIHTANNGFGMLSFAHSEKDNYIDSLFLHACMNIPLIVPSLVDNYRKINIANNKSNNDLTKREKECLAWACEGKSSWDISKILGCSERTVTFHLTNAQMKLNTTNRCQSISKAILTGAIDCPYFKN
As to the kind of experiment: Antagonist activity at Vibrio fischeri luxR expressed in Escherichia coli NM522 in presence of 3-oxo-C6-HSL.

The nature of experiment [11]: Inhibition of quorum sensing system in Burkholderia cepacia.
Experiment [12] concerns Pseudomonas aeruginosa. Put plainly: Antagonist activity at Pseudomonas aeruginosa PAO-JP2 LasR assessed as reduction in GFP production incubated for 6 hrs in presence of OdDHL by fluorescence method relative to control. Details: scale not given: the % may be the effect or the level left. The conditions noted are these: filed as antagonist.
The nature of experiment [13]: Antagonist activity at Pseudomonas aeruginosa PAO-JP2 LasR assessed as reduction in GFP production incubated for 6 hrs in presence of OdDHL by fluorescence method.
Experiment [14] can be described thus: Inhibition of quorum sensing system in Pseudomonas aeruginosa PAO1.
Experiment [15] is described as follows: Inhibition of quorum sensing system in Pseudomonas aeruginosa.
For experiment [16], the system named is Escherichia coli. As to the kind of experiment: Inhibition of quorum sensing system in Escherichia coli assessed as reduction in biofilm formation at 250 uM incubated for 24 hrs by crystal violet staining based method relative to control.
Experiment [17] concerns Pseudomonas aeruginosa. As to the kind of experiment: Inhibition of quorum sensing system in Pseudomonas aeruginosa MH602 harboring lasB promoter measured at 250 uM every 30 mins over 22 hrs by fluorescence method relative to control. The conditions noted are these: time hrs >22.
Experiment [18] can be described thus: Inhibition of LuxR in Escherichia coli Top10 assessed as reduction in GFP production using 3OC6HSL as substrate by fluorescence method.
A short description of experiment [19]: Inhibition of quorum sensing system in Escherichia coli O157:H7.
A short description of experiment [20]: Inhibition of quorum sensing system in Chromobacterium violaceum CV026 assessed as reduction in violacein production incubated for 16 to 18 hrs by spot test method.

Molecules are shown by their SMILES.

Take `O=C1C[C@@H](c2ccc(O)cc2)Oc2cc(O)cc(O)c21` [NARINGENIN]: the IC50 in experiment [1] and in [2] was 4000 µM in each case.

As to `O=C(N[C@H]1CCOC1=O)SCc1ccc([N+](=O)[O-])cc1`, the IC50 in experiment [3] was determined as 23 µM.

Regarding `O=c1c(O)c(-c2ccc(O)cc2)oc2cc(O)cc(O)c12` [KAEMPFEROL], the IC50 in experiment [4] turned out to be 220 µM.

On to `C#CCNC(=O)C(=O)c1ccccc1NC(=O)CCl`, for which the results for the inhibition with Escherichia coli [5] and with Pseudomonas aeruginosa [6] were 71.5% and 66.9%, respectively.

Compound `O=C(/C=C/c1ccc(O)c(O)c1)O[C@@H]1C[C@](O)(C(=O)O)C[C@@H](O)[C@H]1O` [CHLOROGENIC ACID] registered a half-inhibitory concentration (IC50) in experiment [7] of 22 µM.

As for `O=C1C[C@@H](c2ccc(O)c(O)c2)Oc2cc(O)cc(O)c21` [ERIODICTYOL], the 50% inhibitory concentration (IC50) in [1] and in experiment [2] was 4000 µM in each case.

The compound `O=C(OC[C@H]1O[C@@H](OC(=O)c2cc(O)c(O)c(OC(=O)c3cc(O)c(O)c(O)c3)c2)[C@H](OC(=O)c2cc(O)c(O)c(OC(=O)c3cc(O)c(O)c(O)c3)c2)[C@@H](OC(=O)c2cc(O)c(O)c(OC(=O)c3cc(O)c(O)c(O)c3)c2)[C@@H]1OC(=O)c1cc(O)c(O)c(OC(=O)c2cc(O)c(O)c(O)c2)c1)c1cc(O)c(O)c(OC(=O)c2cc(O)c(O)c(O)c2)c1` [TANNIC ACID] returned a half-maximal inhibitory concentration (IC50) in experiment [4] of 20 µM.

As to `Oc1ccc(/C=C/c2cc(O)cc(O)c2)cc1` [RESVERATROL], in experiment [8], the half-maximal inhibitory concentration (IC50) stood at 65 µM.

Regarding `Cc1ccc2c(c1)C(=O)C(=O)N2C(=O)CCl`, the inhibition in the experiment on Pseudomonas aeruginosa [6] was determined as 71.2%.

Regarding `C=C1CCC[C@H]2[C@](C)(Cc3c(O)c(OC(C)=O)cc(OC)c3OC(C)=O)[C@@H](C)CC[C@]12C`, the TIME in experiment [9] was 1 h.

For `CC1=CC(=O)C(C(C)C)=CC1=O` [THYMOQUINONE], in experiment [4], the IC50 turned out to be 130 µM.

On to `Nc1ccccc1[N+](=O)[O-]` [2-NITROANILINE], for which the IC50 in experiment [10] was determined as 85 µM.

In the case of `C[C@H]1CC[C@]2(C)C(=O)CCC[C@H]2[C@]1(C)CC1=C(O)C(=O)CC1=O`, the TIME in experiment [9] was 0.667 h.

`C=C1CCC[C@H]2[C@](C)(CC3=C(O)C(=O)C=C(O)C3=O)[C@@H](C)CC[C@]12C`: the TIME in experiment [9] worked out at 2.5 h.

For the compound `O=C1c2c(O)cc(O)cc2O[C@H](c2ccc(O)c(O)c2)[C@H]1O` [(+)-TAXIFOLIN], the IC50 in [1] and in [2] was 4000 µM in each case.

In experiment [11], `O=c1oc2c(O)c(O)cc3c(=O)oc4c(O)c(O)cc1c4c23` [ELLAGIC ACID] gave an IC50 of 132 µM.

Turning to `CCCCCCCCCNC(=O)CC(=O)c1ccco1`, the Activity in the experiment with Pseudomonas aeruginosa [12] stood at 96%. Further, the IC50 in [13] came out at 1.2 µM.

In the case of `C#CCNC(=O)C(=O)c1cc(Br)ccc1NC(=O)CCl`, the inhibition in the experiment on Pseudomonas aeruginosa [6] was 66.5%.

Compound `Oc1cc(O)c2c(c1)O[C@H](c1ccc(O)c(O)c1)[C@@H](O)C2` [CIANIDANOL] had an IC50 in [14] of 4000 µM.

Compound `O=C/C=C/c1ccccc1` [CINNAMALDEHYDE] came in with an IC50 in experiment [14] of 5900 µM.

In the case of `O=C(O)/C=C/c1ccccc1` [CINNAMIC ACID], the IC50 in [15] is 1680 µM.

Take `O=C1C(=O)N(C(=O)CCl)c2ccccc21`: the inhibition in the experiment on Escherichia coli [16] came out at 87.9%.

In turn, `O=C1Cn2nncc2CNC(=O)C(=O)c2ccccc2NC(=O)Cn2nncc2CNC(=O)C(=O)c2ccccc2N1` registered an inhibition in the experiment on Pseudomonas aeruginosa [17] of 73.5%.

For `CCOC(=O)/C=C1\CC(NCc2ccc(C)cc2)C(=O)N1Cc1ccc(C)cc1` (stereo unspecified), the IC50 in experiment [18] was 50 µM.

As to `COc1cc(/C=C/C(=O)CC(=O)/C=C/c2ccc(O)c(OC)c2)ccc1O` [CURCUMIN], half-maximal inhibition in experiment [14] (IC50) was put at 3 µM.

In the case of `C#CCNC(=O)C(=O)c1cc(Cl)ccc1NC(=O)CCl`, the results for the inhibition in the experiment on Pseudomonas aeruginosa [17], in the experiment on Escherichia coli [5] and in the experiment on Escherichia coli [16] were 71.5%, 72.1% and 90.8%, respectively.

For the compound `O=c1c(O)c(-c2ccc(O)c(O)c2)oc2cc(O)cc(O)c12` [QUERCETIN], in experiment [19], the 50% inhibitory concentration (IC50) turned out to be 20 µM.

`COC1=CC(=O)C(O)=C(C[C@]2(C)[C@@H](C)CC[C@]3(C)OC(=O)CCC[C@@H]23)C1=O`: the TIME in experiment [9] is 0.667 h.

With `O=C(N[C@H]1CCOC1=O)OCc1ccc([N+](=O)[O-])cc1`, the half-inhibitory concentration (IC50) in experiment [3] was 22 µM.

On to `C#CCNC(=O)C(=O)c1cc(F)ccc1NC(=O)CCl`, for which the inhibition with Pseudomonas aeruginosa [17] is 71.5%; with Escherichia coli [5], 73.5%; in the experiment on Escherichia coli [16], 89.5%.

In turn, `O=C(O)c1ccccc1O` [SALICYLIC ACID] returned a concentration for half-maximal inhibition (IC50) in [15] of 1440 µM.

On to `O=C(Nc1ccc(S(=O)(=O)N[C@H]2CCOC2=O)cc1)c1sccc1Cl`, for which the IC50 in [20] turned out to be 6.19 µM.

The IC50 is the concentration at which inhibition is half-maximal. As a reminder, the inhibition is the percentage by which the read-out fell short of the control.
